Data as given in article PMC10095301, “To Target or Not to Target Schistosoma mansoni Cyclic Nucleotide Phosphodiesterase 4A?” (International Journal of Molecular Sciences, 2023).
Values joined by “and” are separate entries in the source; they are usually repeats but may differ in a detail not shown here. Identical values can stand only once. Like-named read-outs stand apart in the source and are kept apart here. Marks after values point to notes of the source that are not given here. Values belong to the molecule of their own block, whether it stands above or below them.

Legend:
[1] = target: SmPDE4A_CD (Schistosoma mansoni, UniProt A0ACM8RGL1); assay: biochemical; conditions: for inhibition at 10 µM: read-out: SmPDE4A_CD Inhibition at 10 µM (%)
Experimental: (§1) Enzyme velocity was plotted against substrate concentration, and Km values were determined using GraphPad Prism software version 8, analyzing the Michaelis–Menten kinetics of the enzyme.
(§2) Inhibitors were initially tested at 10 µM (triplicate measurements/assay, n = 3). In follow-up experiments, dose-response curves were made in the range 100 µM–10 pM (triplicate measurements/assay, n = 3). […] The reaction was terminated by the addition of 5 µL Lonza Stop Buffer supplemented with 10 µM pan-PDE4 inhibitor NPD-0001. Subsequently, 5 µL of Lonza Detection reagent (diluted to 80% with reaction buffer) was added, and the reaction was incubated for 10 min at 300 rpm. Luminescence was read with a Victor3 luminometer using a 0.1 s/well program. […] The Cheng-Prussoff equation, embedded in the GraphPad Prism software, was used to convert IC50 values to pKi values.

[2] = target: SmPDE4A_FL (Schistosoma mansoni, UniProt A0ACM8RGL1); assay: biochemical; conditions: read-out: SmPDE4A_FL inhibition at 10 µM
Experimental: as §1, §2

[3] = system: S. mansoni; assay: In vitro anti-S. mansoni assay: adult worm killing; type: cell-based, Schistosoma mansoni; conditions: for %Worm Killing (Female) / %Worm Killing (Male): day 5
Experimental: Infected Syrian golden hamsters (Mesocrietus auratus) bred and maintained at the Schistosome Biology Supply Center (SBSC) of Theodor Bilharz Research Institute (TBRI), Giza, Egypt, were used. Animals were housed under controlled biological conditions. Animal experiments were conducted in accordance with the Guide for Care and Use of Laboratory Animals and were approved by the Institutional Review Board (IRB) of TBRI. Seven weeks post-infection, hamsters were anesthetized using pentobarbital in a dose of 200 mg/kg body weight and 2 hamsters were sacrificed to obtain the required number of worms. The animals were then perfused using a normal saline solution (0.9% NaCl), and worms were collected. Six to 8 worms per well were placed in a 12-well tissue culture plate, taking care to guarantee 1 to 2 worm pairs/well and fresh RPMI-1640 medium (plus glutamine, 20% newborn calf serum and antibiotics [streptomycin, penicillin and gentamicin]), containing the indicated concentration of the test compound, was added. Worms were incubated overnight in a CO2 incubator at 37 °C. On the 2nd day, worms were examined by microscopy, washed 3 times with normal saline, a fresh medium was added, and the incubation was continued. On the 3rd day, worm motility was observed, and on the 4th day, the medium was again changed. On day 5 (end of the observation period), worms were microscopically examined for their motility and appearance. Each concentration was tested in duplicate wells, and the final recording of percent worm mortality was determined as the number of dead worms [contracted and opaque] divided by the total number of worms ×100).
(§3) For these experiments, roflumilast and NPD-0001 were freshly prepared in different concentrations (100 µM, 50 µM, 25 µM 10 µM and 5 µM) in RPMI-1640 medium and tested in 12-well tissue culture plates for S. mansoni survival and ovipositing capacity. To assess the effects of roflumilast and NPD-0001 on egg production in vitro, we used 12-well tissue culture plates containing 6–8 worms, including at least 1 or 2 worm couples and fresh RPMI-1640 medium containing the indicated concentration of the test compound. Worms were incubated overnight in a CO2 incubator at 37 °C. On the 2nd day, worms were washed 3 times with normal saline, fresh medium was added, and the incubation was continued. Each concentration was tested in duplicate wells, and on the 4th day, eggs were counted and discarded, and the medium was changed. On day 5 (the end of the observation period), newly deposited eggs were counted. The final egg number is the total count of days 4 and 5 for each concentration tested. Statistical analysis was done with Student’s unpaired, 2-tailed t-test.

[4] = system: S. mansoni; assay: In vitro anti-S. mansoni assay: oviposition (egg count); type: cell-based, Schistosoma mansoni; conditions: eggs of days 4 and 5
Experimental: as §3

[5] = Cytotoxicity on MRC-5 cells; type: cell-based; conditions: human, MRC-5SV40 lung fibroblasts, read-out: MRC-5 pIC50 (converted)
Excerpt: Table 4 Effect of SmPDE4A inhibitors on S. mansoni survival and oviposition. | column: MRC-5 pIC50

[6] = system: S. mansoni; parameters: method as in PMID 31711973; conditions: data from Botros et al. and this study, cited from earlier work
[7] = system: S. mansoni; parameters: method as in PMID 31711973; conditions: data from Botros et al. and this study, cited from earlier work; remark: listed apart in the source
[8] = target: SmPDE4A; parameters: method as in PMID 28704396; conditions: estimated value; cited from earlier work
[9] = read-out: SmPDE4A_CD pKi (converted)
[10] = SmPDE4A_CD pKi, mean ± SEM, n ≥ 3, cAMP at 2 × Km (6 µM), Cheng-Prusoff

inhibition at 10 µM ([1]; 10 µM compound): 46%
SMILES: O=C(Nc1ccncc1)c1ccc(OC(F)F)c(OCC2CC2)c1 [NPD-3076]

Ki [1, 9]: 2000 nM | reduction in SmPDE4A inhibitory potency (fold) ([1]; relative to NPD-1204): 10 fold
SMILES: O=C(Nc1ccccc1Cl)c1ccc(OC(F)F)c(OCC2CC2)c1 [NPD-3080]

Ki [1, 9]: 251 nM
SMILES: O=C(Nc1ccncc1Cl)c1ccc(OC(F)F)c(OCC2CC2)c1 [NPD-1204]

inhibition at 10 µM ([1]; 10 µM compound): 21% | reduction in SmPDE4A inhibitory potency (fold) ([1]; relative to roflumilast): three-fold reduction in potency
SMILES: O=C(Nc1cnccc1Cl)c1ccc(OC(F)F)c(OCC2CC2)c1 [NPD-1205]

inhibition at 10 µM ([1]; 10 µM compound): 15%
SMILES: COc1ccc(NC(=O)c2ccc(OC(F)F)c(OCC3CC3)c2)cc1Cl [NPD-3000]

Ki [1, 9]: 398 nM
SMILES: COc1ccc(C(=O)Nc2c(Cl)cncc2Cl)cc1OCC1CC1 [NPD-3094]

inhibition at 10 µM ([1]; 10 µM compound): 4%
SMILES: O=C(Nc1cccc(Cl)c1)c1ccc(OC(F)F)c(OCC2CC2)c1 [NPD-3075]

Ki [1, 9]: 794 nM
SMILES: O=C(Nc1c(Cl)cncc1Cl)c1ccc(Cl)c(OCC2CC2)c1 [NPD-3096]

Ki [1, 9]: 2510 nM
SMILES: O=C(Nc1c(Cl)cncc1Cl)c1ccc(F)c(OCC2CC2)c1 [NPD-3093]

The next lines start with the molecule.

SMILES: COc1ccc(C2=NN(C3CCN(C(=O)CN4C(=O)CCC4=O)CC3)C(=O)C3CC=CCC23)cc1OC (stereo not drawn) [NPD-0007]
inhibition at 10 µM ([1]; 10 µM compound): > 50% | Ki [1, 9]: 501 nM | IC50 ([1]; representative dose-response curves, Figure 4B, read-out: pIC50 inhibition of enzymatic activity of SmPDE4A_CD (converted)): 3980 nM | inhibition at 10 µM ([2]; 10 µM compound, toolbox screen): > 50%

SMILES: COc1ccc(C(=O)Nc2c(Cl)cncc2Cl)cc1OCc1ccccc1 [NPD-0546]
inhibition at 10 µM ([1]; 10 µM compound): 8%

SMILES: O=C(C1CCCCC1)N1CC(=O)N2CCc3ccccc3C2C1 (stereo not drawn) [praziquantel]
worm killing ([3]; 5 µM (lowest concentration tested), sex not specified): 100% | % Oviposition Reduction ([4]; 5 µM): 100%

SMILES: COc1ccc(C(=O)Nc2c(Cl)cncc2Cl)cc1Cl [NPD-1180]
inhibition at 10 µM ([1]; 10 µM compound): 9%

SMILES: COc1ccc(C(=O)Nc2c(Cl)cncc2Cl)cc1OC [NPD-0446]
Ki [1, 9]: 3980 nM

SMILES: COc1ccc(C(=O)Nc2c(Cl)cncc2Cl)cc1 [NPD-0548]
inhibition at 10 µM ([1]; 10 µM compound): 16%

SMILES: O=C(Nc1c(Cl)c[n+]([O-])cc1Cl)c1ccc(OC(F)F)c(OCC2CC2)c1 [NPD-2980, roflumilast N-oxide]
Ki [1, 10]: 63.1 nM

SMILES: COc1ccc(C2=NN(C3CCCCCC3)C(=O)[C@H]3CC=CC[C@@H]23)cc1OCCCCOc1ccc(-c2nnn[nH]2)cc1 [NPD-0001]
IC50 [1]: 1580 nM | Ki [1, 10]: 126 nM | inhibition at 10 µM [1]: > 50% | inhibition at 10 µM [2]: > 50% | %Worm Killing (Female) ([3]; 5 µM): 0% | %Worm Killing (Male) ([3]; 5 µM): 0% | %Worm Killing (Female) ([3]; 10 µM): 0% | %Worm Killing (Male) ([3]; 10 µM): 0% | %Worm Killing (Female) ([3]; 25 µM): 0% | %Worm Killing (Male) ([3]; 25 µM): 0% | %Worm Killing (Female) ([3]; 50 µM): 0% | %Worm Killing (Male) ([3]; 50 µM): 0% | %Worm Killing (Male) ([3]; 100 µM): 63% | % Oviposition Reduction ([4]; 5 µM): 0% | % Oviposition Reduction ([4]; 10 µM): 0% | % Oviposition Reduction ([4]; 25 µM): 13% | % Oviposition Reduction ([4]; 50 µM): 23% | % Oviposition Reduction ([4]; 100 µM): 100 * % | IC50 [5]: 7940 nM

SMILES: O=C(Nc1c(Cl)cncc1Cl)c1ccc(OC(F)F)c(OCC2CC2)c1 [roflumilast]
IC50 [1]: 631 nM | Ki [1, 10]: 79.4 nM | inhibition at 10 µM [1]: > 50% | inhibition at 10 µM [2]: > 50% | IC50 [5]: > 63100 nM | %Worm Killing (Female) ([6]; 5 µM): 0% | %Worm Killing (Male) ([6]; 5 µM): 0% | %Worm Killing (Female) ([6]; 10 µM): 0% | %Worm Killing (Male) ([6]; 10 µM): 0% | %Worm Killing (Female) ([6]; 25 µM): 0% | %Worm Killing (Male) ([6]; 25 µM): 0% | %Worm Killing (Female) ([6]; 50 µM): 0% | %Worm Killing (Male) ([6]; 50 µM): 0% | %Worm Killing (Female) ([6]; 100 µM): 0% | %Worm Killing (Male) ([6]; 100 µM): 0% | % Oviposition Reduction ([7]; 5 µM): 35 * % | % Oviposition Reduction ([7]; 10 µM): 39 * % | % Oviposition Reduction ([7]; 25 µM): 42 * % | % Oviposition Reduction ([7]; 50 µM): 49 * % | % Oviposition Reduction ([7]; 100 µM): 52 * % | SmPDE4A pKi (estimated) [8]: 7.8

SMILES: COc1ccc(C(=O)Nc2c(Cl)cncc2Cl)cc1OC1CCCC1 [piclamilast]
IC50 [1]: 3160 nM | Ki [1, 10]: 316 nM and 63.1 nM | inhibition at 10 µM [1]: > 50% | inhibition at 10 µM [2]: > 50%
